Source: PubChem BioAssay AID179 (DTP/NCI, 2004)
Several values for one entry are separate records, joined by “and”; a condition that tells them apart may be missing. Equal entries are not always repeated. Activity calls are given as the source filed them.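 Rule for the calls: active = compounds giving half or more protection of infected cells from virus-caused growth loss, again on retest; inactive = the rest.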 Where a SMILES comes first, the peptide text is derived from it. [ ]: non-standard residue; d: D form. The star is where a group is joined. Phe(2-OMe) = COc1ccccc1C[CH](N)C(=O)O; Cbz = O=C(OCc1ccccc1)*; OBn = c1ccc(CO*)cc1

Tested on: CEM cells HIV-1 protection, formazan growth assay
Assay: NCI AIDS Antiviral Assay
Conditions: for IC50: measured here: growth of uninfected CEM cells
Method in brief: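 Category rules: moderately active means at least 50% protection on retest, and confirmed active means 100% protection reproducibly. The underlying data came from a formazan growth assay in HIV-1-infected CEM cells.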

SMILES | EC50 [µM] | IC50 | outcome
CSC(N)=Nc1cccc2ccccc12 | > 200 | > 200 µM | –
Cc1ccc(NC(=O)CC2SC(=Nc3cccc(Cl)c3C)NC2=O)cc1 (stereo unspecified) | > 240 | 110 µM | –
Cc1ccc(Oc2ccc(C)cc2[N+](=O)[O-])cc1 | – | – | inactive
CC(C)(C)c1cc(CCC(=O)Nc2ccc(Cl)cc2)nc(NC#N)n1 | > 692 | > 692 µM | –
CCOc1ccc(/C=C\c2ccnc3ccccc23)cc1OCC | 0.0631 | 38 µM | –
NC12CCC(N)(c3ccccc31)c1ccccc12 | > 200 | > 200 µM | –
CC(NC(=O)C(N)CCC(=O)O)C(=O)NCP(=O)(O)O (stereo unspecified) | > 200 | > 200 µM | –
Cc1cc(=O)[nH]c2cc(NC(=O)C(C)NC(=O)C(C)NC(=O)C(C)NC(=O)OC(C)(C)C)ccc12 (stereo unspecified) | > 200 | > 200 µM | –
CN(C)c1ccc(/C=C/C(=O)C(C)(C)C)cc1 | – | – | inactive
COc1ccc(C(c2ccccc2)C(C)C(=O)c2c(C)cc(C)cc2C)cc1 (stereo unspecified) | > 19.5 | > 19.5 µM | –
CC/C(CC(=O)CCC(=O)Nc1ccc(C)c(C)c1)=N\NC(=O)C(N)=O | – | – | inactive
Oc1cccc(/C=C/c2ccncc2)c1 | > 36.3 | > 36.3 µM | –
O=C1CC(c2ccco2)NC(=O)N1CCCl (stereo unspecified) | > 200 | > 200 µM | –
COC1[C@@H](OC(C)=O)[C@@H](NC(=O)C(Cl)(Cl)Cl)C(I)[C@@H](N2C(=O)c3ccccc3C2=O)[C@H]1OC (stereo partly specified) | > 200 | – | –
CC(C)C1=CC2=C[C@H](O)[C@H]3C(C)(C)CCC[C@]3(C)C2=C(O)C1=O | > 20 | 1.62 µM | –
COC(=O)C(Cc1nc2ccc(Cl)cc2[nH]c1=O)/C(=N\N)C(=O)Nc1cc(C)c(Cl)cc1S(=O)(=O)O (stereo unspecified) | > 447 | 115 µM | –
COC1C=CC23c4cc5c(cc4COC2(O)CN(C)C3C1)OCO5 (stereo unspecified) | > 550 | > 550 µM | –
CN(C)CCCn1c2c3ccccc3ccc2c2oc(=O)c3ccccc3c21 | > 33.1 | 1.62 µM | –
CCOC(=O)c1cn(CC)c2cc3c(cc2c1=O)CCS3(=O)=O | > 200 | > 200 µM | –
CCOC(=O)/C(=C\c1ccccc1)[Se]c1ccccc1 | > 56.2 | > 56.2 µM | –
CC(Nc1ccc(Cl)c(Cl)c1)c1ccncc1 (stereo unspecified) | > 200 | 28.8 µM | –
c1ccc(C2N=C(c3ccccn3)C(c3ccccn3)=NC2c2ccccc2)cc1 (stereo unspecified) | > 9.77 | > 9.77 µM | –
COC1=CC2OC3OC(=O)CC3C2C(OCc2ccccc2)=C1 (stereo unspecified) | > 31.6 | > 31.6 µM | –

SMILES | EC50 [µM] | IC50 | outcome
Nc1nc(O)c2ncn([C@H]3CC[C@@H](CO)O3)c2n1 | 1.74 | > 200 µM | –
C1=Cc2ccccc2C(c2ccccc2)=NC1 | > 229 | 145 µM | –
Nc1ccc2c3c1cccc3c(=O)n1c3ccc(Cc4ccc5c(c4)nc4c6ccc(N)c7cccc(c(=O)n54)c76)cc3nc21 | > 100 | – | –
NC(=O)c1ccccc1NC(=O)C(=O)Nc1n[nH]c(N)n1 | > 871 | > 871 µM | –
COc1ccccc1NC(=O)C(=O)C(C#N)CC(C)(C)C=O (stereo unspecified) | > 85.1 | > 85.1 µM | –
CC(C)=CCC[C@@H](C)C1=C(O)C(N[C@H](C)c2ccccc2)=C(C)C(=O)C1=O | > 200 | 1.66 µM | –
C[C@]12CC[C@@H]3c4cc(Br)c(O)c(Br)c4CC[C@H]3[C@@H]1CCC2=O | > 200 | 33.1 µM | –
Cn1c(=O)c(CC(C(=O)O)C(=O)O)nc2ccccc21 | > 200 | > 200 µM | –
COc1ccc(-c2ncnc(-c3ccc(OC)c(OC)c3)n2)cc1OC | > 100 | > 100 µM | –
COc1ccc(N2C(=O)C3c4[nH]c5c(C)cccc5c4C4CCC(C(C)C)CC4C3C2=O)cc1 (stereo unspecified) | > 200 | 23.4 µM | –
O[C@]12CCCC[C@H]1CCC2 | – | – | inactive
CCOC(=O)c1ccc(NC(=O)SCCC(=O)O)cc1 | – | – | inactive
C1CSCCCSCCCSCCCSCCCSCCCSCCCSCCCSC1 | > 8.71 | > 8.71 µM | –
CC1(C)N=C(C(N)=O)c2[nH]cnc2N1 | > 200 | > 200 µM | –
CC(C(O)Cc1ccccc1)N(C)N=Nc1ccc([N+](=O)[O-])cc1 (stereo unspecified) | > 200 | 20 µM | –
CCN1C2=NCCN2S(=O)(=O)c2ccccc21 | > 1000 | 479 µM | –
CC(=O)SCCC(NC(=S)Nc1ccccc1)P(=O)(Oc1ccccc1)Oc1ccccc1 (stereo unspecified) | > 200 | 49 µM | –
OC12c3ccccc3C1CCCCCCCCCC21OCCCO1 (stereo unspecified) | > 200 | > 200 µM | –
O=C(NC(=S)Nc1ccc(Cl)c(Cl)c1)c1cccc([N+](=O)[O-])c1 | > 200 | 17 µM | –
COc1cc(C2C(Cl)C(=O)N2n2cnc3ccccc3c2=O)ccc1O (stereo unspecified) | > 676 | 30.2 µM | –
O=C1C2=Cc3ccccc3OC2(O)Oc2ccc(O)cc21 (stereo unspecified) | > 200 | 50.1 µM | –
COC1=C(Br)C(=O)c2nc(C)ccc2C1=O | – | – | inactive
N#CC(Sc1ccccc1)c1ccccc1 (stereo unspecified) | > 44.7 | > 44.7 µM | –

SMILES | EC50 [µM] | IC50 | outcome
CO/C=C/c1ccc2c(c1)OCO2 | – | – | inactive
C=C(C)[C@@H]1CC[C@]2(CNC(=O)CC(C)(C)CC(=O)O)CC[C@]3(C)[C@H](CC[C@@H]4[C@@]5(C)CC[C@H](NC(=O)CC(C)(C)CC(=O)O)C(C)(C)[C@@H]5CC[C@]43C)[C@@H]12 | > 200 | 18.2 µM | –
O=C1CSCN1N1CSCC1=O | > 200 | > 200 µM | –
CC1CC(C)C2=NOS3=C2C1=NO3 (stereo unspecified) | > 200 | > 100 µM | –
COc1cc(C(O)CCBr)c(OC)cc1C (stereo unspecified) | > 200 | 2.29 µM | –
CN1CCC2(CC1)SSC1(CCN(C)CC1)S2 | > 200 | 191 µM | –
CCCNC(=O)N(CC)S(=O)(=O)c1ccc(Cl)cc1 | – | – | inactive
Cc1cc(S(=O)(=O)NC(=NCC(=O)NN)NN)c(S)cc1Cl | > 200 | 34.7 µM | –
CCOC(=O)C1=C(C)C2C3C(=O)NC(=O)C3C1(C)C1C(=O)NC(=O)C21 (stereo unspecified) | > 724 | > 724 µM | –
Cc1ccc(OCCn2cc(Nc3ccccc3)c(=O)[nH]c2=O)cc1 | > 200 | > 200 µM | –
O=C1Cc2c([nH]c3ccccc23)-c2ccccc2N1 | > 105 | 69.2 µM | –
O=C(O)CCCCCCCc1cc(O)ccc1[N+](=O)[O-] | > 200 | > 200 µM | –
COc1ccccc1NS(=O)(=O)c1ccc2ncn(NS(=O)(=O)c3ccc(Cl)cc3)c(=O)c2c1 | – | – | inactive
COc1cc2ccc(/C(C)=N/OC(C)=O)cc2cc1OC | – | – | inactive
O=S(=O)(O)C(O)C(F)(F)C(F)(F)C(F)(F)C(F)(F)C(O)S(=O)(=O)O (stereo unspecified) | > 200 | 155 µM | –
COc1c(OC2OC(CO)C(O)C(O)C2O)cc2occ(-c3ccc4c(c3)OCO4)c(=O)c2c1O (stereo unspecified) | > 200 | > 200 µM | –
N#CC(/C(CCCC(=O)Nc1cccc([N+](=O)[O-])c1)=N/NC(=O)c1cc2ccccc2cc1O)c1ccccc1 (stereo unspecified) | > 35.5 | 15.5 µM | –
CCN(CC)CCn1c(=O)c2ccccc2n2c3c(=O)n(C)c(=O)n(C)c3nc12 | > 20 | 1.86 µM | –
CCOC(=O)C(NC(=O)NCc1ccc(F)cc1)C(F)(F)F (stereo unspecified) | > 200 | 81.3 µM | –
N#Cc1[nH]c(=O)n(-c2ccccc2)c1N | > 200 | > 200 µM | –
CCCCCC=C(c1cc(Br)cc(C(=O)OC)c1OC)c1cc(Br)cc(C(=O)OC)c1OC | 42.7 | 43.7 µM | –
CC1=CN(c2ccccc2)S2=C1c1sc3c(c1N2c1ccc(Br)cc1)CCCC3 (stereo unspecified) | > 200 | > 200 µM | –
Cc1ccc2nc(C(=O)O)c(=O)[nH]c2c1 | – | – | inactive

SMILES | EC50 [µM] | IC50 | outcome
CC(=O)CCn1[nH]c(=O)c(Cl)c(Cl)c1=O | > 1000 | > 1000 µM | –
N#Cc1ccc(-c2nc(C#N)c(N)o2)cc1 | 135 | > 200 µM | –
COC(=O)C(NC(=O)c1ccccc1)C(c1ccc(Cl)cc1)P(=O)(OC)OC (stereo unspecified) | > 309 | > 309 µM | –
O=C1COC(c2ccccc2)C(c2ccccc2)(c2ccccc2)O1 (stereo unspecified) | > 15.8 | > 15.8 µM | –
CCN(CC)c1ccc(N=C2C=CC(=O)c3ncccc32)c(C)c1 | > 11.7 | > 11.7 µM | –
COc1ncnc2c1ncn2C1CC(O)C(CO)(C(F)(F)F)O1 (stereo unspecified) | > 200 | > 200 µM | –
COC(=O)Oc1nn(C(=O)OC)c(=O)c2ccccc12 | > 200 | > 200 µM | –
C[C@]12CC[C@@H]3c4cc(OCC(F)(F)F)c(O)cc4CC[C@H]3[C@@H]1CC[C@@H]2O | > 0.2 | 0.0676 µM | –
CN(C)C1CCC2(CC1)OCCO2 | – | – | inactive
Cc1ccc2nc(NS(=O)(=O)c3cc(C)c(Cl)cc3S)[nH]c2c1 | > 200 | > 200 µM | –
OCC(S)CS (stereo unspecified) | > 151 | 72.4 µM | –
O=[N+]([O-])c1cccc(-c2ncnc(-c3cccc([N+](=O)[O-])c3)n2)c1 | > 100 | > 100 µM | –
CN(C)CC1CCC/C1=N/OC(=O)c1ccccc1 (stereo unspecified) | – | – | inactive
C#CCOCC12C=CC(O1)C1C(=O)N(C)C(=O)C12 (stereo unspecified) | > 200 | 74.1 µM and 182 µM | –
COc1ccc2c(c1OC)Oc1c(OC)ccc3c1C(C2)N(C)C[C@@H]3O (stereo partly specified) | > 251 | > 251 µM | –
CCc1c(Cc2ccccc2)n(COCCC[Se]c2ccccc2)c(=O)[nH]c1=O | 2.82 | 18.2 µM | –
COC(=O)c1csc(-c2csc(CCNC(=O)OC(C)(C)C)n2)n1 | > 355 | 60.3 µM | –
COC(=O)C(Cc1ccccc1OC)NC(=O)C(CC(=O)OCc1ccccc1)NC(=O)OCc1ccccc1 (stereo unspecified) (Cbz-Asp(OBn)-[Phe(2-OMe)]-OMe; configuration not given here) | > 200 | 30.2 µM | –
COc1ccc2nc(NC(=O)C(=O)C(C#N)c3ccc([N+](=O)[O-])cc3)sc2c1 (stereo unspecified) | – | – | inactive
N#C/C(=C\c1cc(O)c(O)c(O)c1)C(=O)NCCCNC(=O)/C(C#N)=C/c1cc(O)c(O)c(O)c1 | > 132 | 21.4 µM | –
COc1ccc2cc(Oc3ccc(Cl)cc3)c(=O)oc2c1 | > 200 | > 200 µM | –
CC(C)(C)c1cc(C(O)(C(F)(F)F)C(F)(F)F)c(S)c(C(O)(C(F)(F)F)C(F)(F)F)c1 | > 200 | 3.47 µM | –
